Publication PMC6938011, “Antiplasmodial profile of selected compounds from Malaria Box: in vitro evaluation, speed of action and drug combination studies” (Malaria Journal, 2019)
Entries after “also recorded” stand apart in the source; their conditions may differ. Read-outs that look alike come from different tables or passages of the source.

Legend:
P. falciparum 3D7 strain [1] = assay: SYBR Green I inhibition assay for the asexual stages of P. falciparum; assay type: cell-based, Plasmodium falciparum; details: 72 h, read-out: IC50^Pf Average (confidence interval-95%)
Description: The P. falciparum 3D7 strain was kept in culture in a humidified incubator at 37 °C in RPMI-1640 medium with 25 mM NaHCO3, 25 mM HEPES (pH 7.4), 11 mM D-glucose, 3.67 mM hypoxanthine and 25 µg/mL gentamicin, supplemented with 0.5% (m/v) AlbuMAX II. The culture medium was changed daily, and the parasitaemia was maintained below 10% with 2.5% haematocrit in human erythrocytes.
The parasites were synchronized through sterile 5% (m/v) D-sorbitol treatment over 10 min at 37 °C for the enrichment of ring-stage parasites. The cultures were pelleted by centrifugation at 600×g over 5 min. The parasitaemia was determined by microscope analysis of thin blood smears stained with Giemsa 10% (v/v) after methanol fixation. The initial parasitaemia was calculated from 1000 red blood cells (RBCs), and cultures were diluted to 0.5% parasitaemia and 2% haematocrit by adding the appropriate volumes of erythrocytes and medium. Parasite aliquots of 180 µL were distributed into 96-well plates previously prepared with 20 µL aliquots of a tenfold concentrated compound. Negative and positive control wells corresponding to non-parasitized erythrocytes and parasite cultures in the absence of compounds were set in parallel. The DMSO concentration was maintained below 0.05% (v/v). The plates were incubated for 72 h at 37 °C in a humidified incubator with a gas mixture of 90% N2, 5% O2 and 5% CO2. After incubation, the culture medium was removed, and the cells were resuspended in 100 µL PBS buffer (116 mM NaCl, 10 mM Na2HPO4, 3 mM KH2PO4) and lysed with 100 µL lysis buffer (20 mM Tris base, 5 mM EDTA, 0.0008% (v/v) Triton X-100, 0.008% (m/v) saponin, pH 8.0) containing 0.002% (v/v) SYBR Green I. Plates were incubated at room temperature for 30 min, and the fluorescence corresponding to the parasitic density was determined using a SpectraMAX Gemini EM plate reader (Molecular Devices Corp., Sunnyvale, CA) (excitation at 485 nm, emission at 535 nm). The half maximal inhibitory concentration (IC50^Pf) was determined by non-linear regression analysis of the resulting concentration-response curve using the software Origin 2016 (OriginLab Corporation).

[2] = system: Hepatocarcinoma cells (HepG2); assay: Cytotoxicity evaluation, MTT assay; assay type: cell-based, human; details: HepG2, 72 h, read-out: IC50^HepG2, MTT Average (confidence interval-95%)
Description: (§1) Hepatocarcinoma cells (HepG2) were cultivated in RPMI medium supplemented with 10% (v/v) fetal bovine serum and 0.2% (v/v) penicillin/streptomycin. The antibiotics were added to the medium to eliminate the potential interference of microbial contamination. Cells were cultivated at 37 °C and 5% CO2; the supplemented medium was changed every 2 days.
(§2) For the experimental procedures, cells were trypsinized and transferred to a 96-well plate at 30,000 cells per well and incubated at 37 °C overnight for cell adhesion. Then, serial dilutions of the inhibitor candidates were added to the plate. Cells without any compounds were used as positive growth controls. The plate was incubated at 37 °C and 5% CO2 for 72 h. After incubation, the highest compound concentration to be considered (highest concentration without precipitation) was observed by microscopy. Cytotoxicity was evaluated by two different methods. The first is a colorimetric assay based on metabolic cell activity in the presence of 3-(4,5-dimethylthiazol-2-yl)-2,5-diphenyltetrazolium bromide (MTT). Briefly, mitochondrial enzymes can convert the MTT dye into the purple insoluble compound formazan. To each well, 20 µL MTT at 5 mg/mL was added, followed by incubation at 37 °C for 3 to 5 h. After incubation, the supernatant was removed, and formazan crystals were solubilized in 100 µL DMSO. The absorbance, which is proportional to the number of viable cells, was determined using a SpectraMAX Plus 384 plate reader (Molecular Devices Corp., Sunnyvale, CA) (λ = 570 nm). The second method is based on the uptake of neutral red, a dye that is retained inside the lysosomes of viable cells. To each well, after removal of culture media, 200 µL neutral red medium 40 µg/mL was added, followed by incubation at 37 °C for 3 to 5 h. After incubation, supernatant was dispensed, and 200 µL 0.5% (v/v) formaldehyde in 1% (m/v) CaCl2 was added to remove excess of the dye for 5 min. Supernatant was dispensed, and 100 µL alcohol-acid solution (50% (v/v) ethanol, 1% (v/v) glacial acetic acid) was added, and the plate was stirred until a homogeneous solution was formed. The absorbance was determined using a SpectraMAX Plus 384 plate reader (Molecular Devices Corp., Sunnyvale, CA) (λ = 540 nm). For both methods, the half maximal inhibitory concentration (IC50^HepG2) was determined by non-linear regression analysis of the resulting concentration-response curve using the software Origin 2016 (OriginLab Corporation).

[3] = system: Hepatocarcinoma cells (HepG2); assay: Cytotoxicity evaluation, neutral red assay; assay type: cell-based, human; details: HepG2, 72 h, read-out: IC50^HepG2, NR Average (confidence interval-95%)
Description: as §1, §2

[4] = system: asexual intraerythrocytic stages of P. falciparum; assay: Speed of action studies (microscopy of thin blood smears); assay type: cell-based, Plasmodium falciparum; details: ring-stage parasites; for Parasite morphology during incubation: compound at tenfold the IC50, microscopy up to 36 h; for Speed of action: compound at tenfold the IC50, observed 0-36 h
Description: Parasites in thin blood smears were observed by microscopy after 0, 8, 16, 24 and 36 h of incubation.

P. falciparum [5] = assay: Combination assays, isobologram analysis (FIC50 pairs); assay type: cell-based, Plasmodium falciparum; details: for Isobologram data, Additive: fraction of FIC50 pairs / Isobologram data, Additive: number of FIC50 pairs / Isobologram data, Antagonistic: fraction of FIC50 pairs / Isobologram data, Antagonistic: number of FIC50 pairs / Isobologram data, Synergic: number of FIC50 pairs: combination with artesunate; for Combination profile with artesunate: isobologram, IC50 equivalent ratios 1:4, 2:3, 1:1, 3:2, 4:1
Description: Combinations of anti-malarial candidates with artesunate, an artemisinin derivative, were tested in fixed molar ratios based on the individual IC50 values that were previously determined by the SYBR Green I assay. Traditionally, a line (isobole) of additivity is used to distinguish between additive, synergic, and antagonistic interaction profiles. […] Thus, a systematic consideration of additivity ranges was included in the isobologram analysis, as previously described by Grabovsky and Tallarida. Concentration-response curves of individual compounds were used in the calculation of each pair’s additivity range (area within the upper and lower limits in Figs. 4 and 5). Fractional inhibitory concentration (FIC50) pairs plotted as points inside the additivity range indicate the expected sum of each compound effect, while points above and below the range indicate antagonistic and synergic interactions, respectively. The selected inhibitors were combined with artesunate in the IC50 equivalent ratios of 1:4, 2:3, 1:1, 3:2 and 4:1 for the construction of the isobolograms.

P. berghei NK65 strain = assay: In vivo suppressive parasite growth test against Plasmodium berghei; design: species or system Swiss outbred mice; details: 50 mg/kg oral gavage daily for 3 days, P. berghei-infected mice
Description: A suppressive parasite growth test was performed in mice infected with P. berghei NK65 strain (originally received from the New York University Medical School), as described previously, with some modifications. Briefly, adult Swiss outbred mice (20 ± 2 g weight) were intraperitoneally inoculated with 1 × 10^5 red blood cells infected with P. berghei. The infected mice were maintained together for at least 2 h and then randomized into groups of 5 animals per cage, which were subsequently administered 50 mg/kg of each compound diluted in 3% (v/v) DMSO by oral gavage daily for 3 days. Two control groups were used in parallel: one was treated with CQ (20 mg/kg) and the other was treated with the vehicle. Blood smears from mouse tails were prepared on days 5 and 7 post-infection and then fixed with methanol, stained with Giemsa 10% (v/v), and examined under the microscope.

P. falciparum 3D7 strain [6] = system: P. falciparum 3D7 strain; design: method as in PMID 23798988; details: reported potency of Malaria Box compounds ref 13, read-out: Reported IC50^Pf; cited from earlier work
[7] = design: method as in PMID 27467575; details: previous pharmacokinetics studies ref 30; cited from earlier work
[8] = design: method as in PMID 27467575; details: previous pharmacokinetics studies ref 30; cited from earlier work; remark: listed apart in the source
P. falciparum [9] = assay: Combination assays, isobologram analysis (FIC50 pairs); assay type: cell-based, Plasmodium falciparum
bc1 complex = system: bc1 complex; design: method as in PMID 27467575; details: mitochondrial electron transport chain ref 30; cited from earlier work
[10] = Solubility in the cytotoxicity assay conditions; assay type: physicochemical; details: HepG2 cytotoxicity assay conditions
Description: For the experimental procedures, cells were trypsinized and transferred to a 96-well plate at 30,000 cells per well and incubated at 37 °C overnight for cell adhesion. Then, serial dilutions of the inhibitor candidates were added to the plate. Cells without any compounds were used as positive growth controls. The plate was incubated at 37 °C and 5% CO2 for 72 h. After incubation, the highest compound concentration to be considered (highest concentration without precipitation) was observed by microscopy. Cytotoxicity was evaluated by two different methods. The first is a colorimetric assay based on metabolic cell activity in the presence of 3-(4,5-dimethylthiazol-2-yl)-2,5-diphenyltetrazolium bromide (MTT). Briefly, mitochondrial enzymes can convert the MTT dye into the purple insoluble compound formazan. […] The absorbance, which is proportional to the number of viable cells, was determined using a SpectraMAX Plus 384 plate reader (Molecular Devices Corp., Sunnyvale, CA) (λ = 570 nm). […] The absorbance was determined using a SpectraMAX Plus 384 plate reader (Molecular Devices Corp., Sunnyvale, CA) (λ = 540 nm). For both methods, the half maximal inhibitory concentration (IC50^HepG2) was determined by non-linear regression analysis of the resulting concentration-response curve using the software Origin 2016 (OriginLab Corporation).

P. falciparum [11] = details: cited from earlier work

SMILES | IC50 (P. falciparum 3D7 strain [1]) [nM] | IC50 [2] [nM] | IC50 [3] [nM] | Parasite morphology during incubation [4] | Speed of action [4] | Isobologram data, Additive: fraction of FIC50 pairs (P. falciparum [5]) [%] | Isobologram data, Additive: number of FIC50 pairs (P. falciparum [5]) | Isobologram data, Antagonistic: fraction of FIC50 pairs (P. falciparum [5]) [%] | Isobologram data, Antagonistic: number of FIC50 pairs (P. falciparum [5]) | Isobologram data, Synergic: number of FIC50 pairs (P. falciparum [5]) | Combination profile with artesunate (P. falciparum [5]) | IC50 (P. falciparum 3D7 strain [6]) [nM] | Combination profile with proguanil (P. falciparum [9]) | further results
CCOC(=O)C1=C(C)N=c2sc(=Cc3cc(Cl)ccc3O)c(=O)n2C1c1ccc(OC)cc1 (stereo not drawn) [Compound 2] | 400 | 22000 | 22000 | pyknotic nuclei formation | Fast | 92 | 12 | 8 | 1 | 0 | additive profile | 489 | – | Combination profile with artesunate (P. falciparum [5]; listed as 02): Additivity; % of reduction of parasitaemia, day 5 after infection (P. berghei NK65 strain): 64%; % of reduction of parasitaemia, day 7 after infection (P. berghei NK65 strain): 33%; Oral bioavailability [7]: poor; Plasma protein binding [8]: > 99%
O=C1c2ccccc2-c2nnc(-c3ccc(Br)cc3)cc21 [Compound 6] | 1200 | > 12500 | > 12500 | young trophozoites were observed after 36 h | slow-acting and Slow | 15 | 2 | 85 | 11 | 0 | – | 1070 | highly synergic | Combination profile with artesunate (P. falciparum [5]; listed as 06): Antagonism; Molecular target (bc1 complex): inhibitor of the mitochondrial electron transport chain targeting the bc1 complex
Cc1cc(NC(=O)c2ccc(-c3ccccc3)cc2)no1 [Compound 10] | 850 | – | – | punctual shapes after 16 h | Fast | 38 | 5 | 62 | 8 | 0 | antagonistic; also recorded: Antagonism | 693 | – | Solubility in the assay conditions [10]: low solubility
O=C1C(O)=C([C@H]2CC[C@H](c3ccc(Cl)cc3)CC2)C(=O)c2ccccc21 [atovaquone, reference compound] | – | – | – | – | – | – | – | – | – | – | antagonistic | – | synergic | Speed of action (literature) (P. falciparum [11]): slow
